These results are taken from patent US11236401B2, “Sensors for detection and quantification of microbiological protein secretion” (SenseUp GmbH, priority 2015, dated 2022).

Test [1] has as its system strain ATCC 13032 pSen0706. In words: In vivo EYFP fluorescence of sensor strain ATCC 13032 pSen0706 (cg0706 promoter) as a function of antibiotic concentration, BioLector. It counts as cell-based, Corynebacterium glutamicum. To be noted: ATCC 13032 pSen0706 in CGXII medium, 24 hours; antibiotic added after 4 hours; Vancomycine 0; 1.25; 2.5; 5; 10; 15; 20 μg/ml; Bacitracin 0; 1; 4 μg/ml; excitation 485 nm, emission 520/10 nm; FIGS. 1 and 2. How it is done:
(§1) c) Detection of the fluorescence as a function of the concentration of a compound that is characterized by an antibiotic activity due to its property to damage the membrane of a bacterial cell.
The examination of in vivo fluorescence emission was carried out by culturing the cells of strain ATCC 13032 pSen0706 with 0.8 ml CGXII medium (Keilhauer et al, 1993, J. Bacteriol. 175: 5595-603) in microtiter dimension (Flowerplate® MTP-48-B) in the BioLector system (m2p-labs GmbH, 52499 Baesweiler, Germany). This system allows for the parallel cultivation of 48 cultures and regular and automated optical measurements of the culture growth as well as the fluorescence. 10 cultures with cells of strain ATCC 13032 pSen0706 were inoculated to an OD of 0.1 and cultured for 24 hours. After 4 hours the antibiotic substances Vancomycine or Bacitracine were added to the cultures. Vancomycine-concentrations were adjusted to 0; 1.25; 2.5; 5; 10; 15; 20 μg/ml and Bacitracin-concentrations were adjusted to 0; 1; 4 μg/ml. Every 10 minutes the cell densities of cultures and the fluorescence were measured. The fluorescence was excited with light of wavelength 485 nm, the fluorescence emission measurement of EYFP was carried out at 520/10 nm. The fluorescence of the cultures has been digitally recorded by means of the BioLection V.2.4.1.0 software.

Test [2] deals with strain ATCC 13032 pSen1325. In words: In vivo EYFP fluorescence of sensor strain ATCC 13032 pSen1325 (cg1325 promoter) as a function of antibiotic concentration, BioLector. It counts as cell-based, Corynebacterium glutamicum. The note with it: ATCC 13032 pSen1325 in CGXII medium, 24 hours; antibiotic added after 4 hours; Vancomycine 0; 1.25; 2.5; 5; 10; 15; 20 μg/ml; Bacitracin 0; 0.25; 0.5; 1; 2; 4 μg/ml; excitation 485 nm, emission 520/10 nm. On the procedure: as §1
The examination of in vivo fluorescence emission was carried out by culturing the cells of strain ATCC 13032 pSen1325 with 0.8 ml CGXII medium (Keilhauer et al, 1993, J. Bacteriol. 175: 5595-603) in microtiter dimension (Flowerplate® MTP-48-B) in the BioLector system (m2p-labs GmbH, 52499 Baesweiler, Germany). 13 cultures with cells of strain ATCC 13032 pSen1325 were inoculated to an OD of 0.1 and cultured for 24 hours. After 4 hours the antibiotic substances Vancomycine or Bacitracine were added to the cultures. Vancomycine-concentrations were adjusted to 0; 1.25; 2.5; 5; 10; 15; 20 μg/ml and Bacitracin-concentrations were adjusted to 0; 0.25; 0.5; 1; 2; 4 μg/ml. Every 10 minutes the cell densities of cultures and the fluorescence were measured. The fluorescence was excited with light of wavelength 485 nm, the fluorescence emission measurement of EYFP was carried out at 520/10 nm. The fluorescence of the cultures has been digitally recorded by means of the BioLection V.2.4.1.0 software.

Where a SMILES comes first, the peptide text is derived from it. Bridges are numbered along the chain shown (N, C = ends). [ ]: non-standard residue; d: D form. The star is where a group is joined. Ileψ(thiazoline)Cys = CC[C@H](C)[C@H](N)C1=N[C@H](C(=O)*)CS1; dOrn = NCCC[C@@H](N)C(=O)O

For the compound `CC[C@H](C)[C@H](N)C1=N[C@H](C(=O)N[C@@H](CC(C)C)C(=O)N[C@H](CCC(=O)O)C(=O)N[C@H](C(=O)N[C@H]2CCCCNC(=O)[C@H](CC(N)=O)NC(=O)[C@@H](CC(=O)O)NC(=O)[C@H](Cc3cnc[nH]3)NC(=O)[C@@H](Cc3ccccc3)NC(=O)[C@H]([C@@H](C)CC)NC(=O)[C@@H](CCCN)NC2=O)[C@@H](C)CC)CS1` [Bacitracine] ({Ileψ(thiazoline)Cys}-L[dE]IK[dOrn]I[dF]H[dD]N; lactam 4-C), the “fluorescence emission of cultures as a function of the concentration of the compound” value in test [1] and in test [2] was “fluorescence emissions of cultures with different Vancomycine or Bacitracine concentrations also differs” throughout.
As to `CN[C@H](CC(C)C)C(=O)N[C@H]1C(=O)N[C@@H](CC(N)=O)C(=O)N[C@H]2C(=O)N[C@H]3C(=O)N[C@H](C(=O)N[C@H](C(=O)O)c4cc(O)cc(O)c4-c4cc3ccc4O)[C@H](O)c3ccc(c(Cl)c3)Oc3cc2cc(c3O[C@@H]2O[C@H](CO)[C@@H](O)[C@H](O)[C@H]2O[C@H]2C[C@](C)(N)[C@H](O)[C@H](C)O2)Oc2ccc(cc2Cl)[C@H]1O` [Vancomycine], the “fluorescence emission of cultures as a function of the concentration of the compound” value in test [1] and in test [2] was “fluorescence emissions of cultures with different Vancomycine or Bacitracine concentrations also differs” in each case.
